Experimental data from patent US20110065916A1, “METHOD OF MAKING IMIDAZOAZEPINONE COMPOUNDS” (priority 2007, published 2011).

system: human T-bet; test: HEKT-bet-luc assay (normalized HEKT-bet IC50); type: cell-based; conditions: Homo sapiens, HEK293, 24 h, Table 4, engineered HEK cells, compound 24 hours, normalized to reference ER-819544
Procedure: HEKT-bet-luc assay: This assay measures a T-bet dependent reporter (luciferase) activity in engineered HEK cells that express a human T-bet and a T-box responsive element driving luciferase reporter. HEKT-bet cells were plated at 2×10^4/well in 96-well plate and compound was added into cell culture for 24 hours. Luciferase activity was measured by adding 50 μl of Steady-Glo reagent (Promega) and samples were read in Victor V reader (PerkinElmer). The activity of compound was determined by comparing compound treated samples to non-compound treated vehicle controls. The IC50 values were calculated utilizing a maximum value corresponding to the amount of luciferase in the absence of a test compound and a minimum value corresponding to a test compound value obtained at maximum inhibition.
Determination of Normalized HEKT-bet IC50 values: Compounds were assayed in microtiter plates. Each plate included a reference compound which was ER-819544. The un-normalized IC50 value for a particular compound was divided by the IC50 value determined for the reference compound in the same microtiter plate to provide a relative potency value. The relative potency value was then multiplied by the established potency of the reference compound to provide the normalized HEKT-bet IC50 value. […] The IC50 values provided herein were obtained using this normalization method.

SMILES	IC50
COc1cc2c(c(OC)c1)[C@@H](C)C=C1N(C2)C(=O)N(CCO)C12CCN(Cc1cc(C)cc(C)c1)CC2 (single isomer, unassigned) [ER-819786]	30 nM
COc1cc2c(c(OC)c1)[C@H](C)C=C1N(C2)C(=O)N(CCO)C12CCN(Cc1cc(C)cc(C)c1)CC2 (single isomer, unassigned) [ER-819787]	170 nM
COc1cc2c(c(OC)c1)[C@@H](C)C=C1N(C2)C(=O)N(C[C@@H](O)CO)C12CCN(Cc1cc(C)cc(C)c1)CC2 (single isomer, unassigned) [ER-819788]	30 nM
COc1cc2c(c(OC)c1)[C@H](C)C=C1N(C2)C(=O)N(C[C@@H](O)CO)C12CCN(Cc1cc(C)cc(C)c1)CC2 (single isomer, unassigned) [ER-819789]	170 nM
C=C(C)CN1C(=O)N2Cc3cc(OC)cc(OC)c3[C@@H](C)C=C2C12CCN(Cc1cc(C)cc(C)c1)CC2 (single isomer, unassigned) [ER-820006]	60 nM
C=C(C)CN1C(=O)N2Cc3cc(OC)cc(OC)c3[C@H](C)C=C2C12CCN(Cc1cc(C)cc(C)c1)CC2 (single isomer, unassigned) [ER-820007]	1260 nM
CCN1C(=O)N2Cc3cc(OC)cc(OC)c3[C@@H](C)C=C2C12CCN(Cc1nccn1C)CC2 [ER-811278-01]	37 nM
CCN1C(=O)N2Cc3cc(OC)cc(OC)c3[C@@H](C)C=C2C12CCN(Cc1csnn1)CC2 [ER-811279-01]	210 nM
CCN1C(=O)N2Cc3cc(OC)cc(OC)c3[C@@H](C)C=C2C12CCN(Cc1nc(C)oc1C)CC2 [ER-811283-01]	53 nM
CCN1C(=O)N2Cc3cc(OC)cc(OC)c3[C@@H](C)C=C2C12CCN(Cc1ccc3nccn3c1)CC2 [ER-811284-01]	88 nM
CCN1C(=O)N2Cc3cc(OC)cc(OC)c3[C@@H](C)C=C2C12CCN(Cc1cccc3c1OCCO3)CC2 [ER-811291-01]	120 nM
CCN1C(=O)N2Cc3cc(OC)cc(OC)c3[C@@H](C)C=C2C12CCN(Cc1cn3ccccc3n1)CC2 [ER-811292-01]	130 nM
CCN1C(=O)N2Cc3cc(OC)cc(OC)c3[C@@H](C)C=C2C12CCN(Cc1cnc3ccccc3n1)CC2 [ER-811297-01]	74 nM
CCN1C(=O)N2Cc3cc(OC)cc(OC)c3[C@@H](C)C=C2C12CCN(Cc1cccc3[nH]ccc13)CC2 [ER-811300-01]	35 nM
CCN1C(=O)N2Cc3cc(OC)cc(OC)c3[C@@H](C)C=C2C12CCN(Cc1cc3nccnc3s1)CC2 [ER-811301-01]	260 nM
CCN1C(=O)N2Cc3cc(OC)cc(OC)c3[C@@H](C)C=C2C12CCN(Cc1cccc(-n3cncn3)c1)CC2 [ER-811302-01]	250 nM
CCN1C(=O)N2Cc3cc(OC)cc(OC)c3[C@@H](C)C=C2C12CCN(Cc1ccc3occc3c1)CC2 [ER-811304-01]	100 nM
CCN1C(=O)N2Cc3cc(OC)cc(OC)c3[C@@H](C)C=C2C12CCN(Cc1c(C)nc3ccccn13)CC2 [ER-811305-01]	31 nM
CCN1C(=O)N2Cc3cc(OC)cc(OC)c3[C@@H](C)C=C2C12CCN(Cc1cccc3c1OCC3)CC2 [ER-811306-01]	100 nM
CCN1C(=O)N2Cc3cc(OC)cc(OC)c3[C@@H](C)C=C2C12CCN(Cc1cc3ccccc3o1)CC2 [ER-811308-01]	56 nM
CCN1C(=O)N2Cc3cc(OC)cc(OC)c3[C@@H](C)C=C2C12CCN(Cc1cn3ccsc3n1)CC2 [ER-811309-01]	130 nM

SMILES	IC50
CCN1C(=O)N2Cc3cc(OC)cc(OC)c3[C@@H](C)C=C2C12CCN(Cc1c3ccccc3nn1C)CC2 [ER-811312-01]	77 nM
CCN1C(=O)N2Cc3cc(OC)cc(OC)c3[C@@H](C)C=C2C12CCN(Cc1cccc(-n3cccn3)c1)CC2 [ER-811317-01]	74 nM
CCN1C(=O)N2Cc3cc(OC)cc(OC)c3[C@@H](C)C=C2C12CCN(Cc1ccc3ccccc3n1)CC2 [ER-811323-01]	42 nM
CCN1C(=O)N2Cc3cc(OC)cc(OC)c3[C@@H](C)C=C2C12CCN(Cc1cccc3nsnc13)CC2 [ER-811332-01]	67 nM
CCN1C(=O)N2Cc3cc(OC)cc(OC)c3[C@@H](C)C=C2C12CCN(Cc1c(-c3ccc(F)cc3)nc3ncccn13)CC2 [ER-811346-02]	200 nM
CCN1C(=O)N2Cc3cc(OC)cc(OC)c3[C@@H](C)C=C2C12CCN(Cc1cccc3c1ccn3C)CC2 [ER-811349-01]	43 nM
CCN1C(=O)N2Cc3cc(OC)cc(OC)c3[C@@H](C)C=C2C12CCN(Cc1c(C)nc3sccn13)CC2 [ER-811352-02]	13 nM
CCN1C(=O)N2Cc3cc(OC)cc(OC)c3[C@@H](C)C=C2C12CCN(Cc1cccn1C(C)C)CC2 [ER-811358-01]	220 nM
CCN1C(=O)N2Cc3cc(OC)cc(OC)c3[C@@H](C)C=C2C12CCN(Cc1cccn1C(C)(C)C)CC2 [ER-811359-01]	270 nM
CCN1C(=O)N2Cc3cc(OC)cc(OC)c3[C@@H](C)C=C2C12CCN(Cc1cc(C)sc1C)CC2 [ER-811365-01]	84 nM
CCN1C(=O)N2Cc3cc(OC)cc(OC)c3[C@@H](C)C=C2C12CCN(Cc1cc(C)cc(C)c1)CC2 [ER-819762]	40 nM
CCN1C(=O)N2Cc3cc(OC)cc(OC)c3[C@H](C)C=C2C12CCN(Cc1cc(C)cc(C)c1)CC2 [ER-819763]	550 nM
CCN1C(=O)N2Cc3cc(OC)cc(OC)c3[C@@H](C)C=C2C12CCN(Cc1cnc[nH]1)CC2 [ER-819780-01]	200 nM
CCN1C(=O)N2Cc3cc(OC)cc(OC)c3[C@@H](C)C=C2C12CCN(Cc1c[nH]c3ccccc13)CC2 [ER-819783-01]	35 nM
CCN1C(=O)N2Cc3cc(OC)cc(OC)c3[C@@H](C)C=C2C12CCN(Cc1nn(C)c3ccccc13)CC2 [ER-819800-01]	23 nM
CCN1C(=O)N2Cc3cc(OC)cc(OC)c3[C@@H](C)C=C2C12CCN(Cc1cn(C)c3ccccc13)CC2 [ER-819804-01]	40 nM
CCN1C(=O)N2Cc3cc(OC)cc(OC)c3[C@@H](C)C=C2C12CCN(Cc1cn(C(C)=O)c3ccccc13)CC2 [ER-819808-01]	140 nM
CCN1C(=O)N2Cc3cc(OC)cc(OC)c3[C@@H](C)C=C2C12CCN(Cc1cnoc1C)CC2 [ER-819810-01]	12 nM
CCN1C(=O)N2Cc3cc(OC)cc(OC)c3[C@@H](C)C=C2C12CCN(Cc1ccc(/C=C/c3ccccc3)cc1)CC2 [ER-819814-01]	300 nM
CCN1C(=O)N2Cc3cc(OC)cc(OC)c3[C@@H](C)C=C2C12CCN(Cc1ccc3nn[nH]c3c1)CC2 [ER-819820-01]	90 nM
CCN1C(=O)N2Cc3cc(OC)cc(OC)c3[C@@H](C)C=C2C12CCN(Cc1c[nH]nc1C)CC2 [ER-819826-01]	67 nM

SMILES	IC50
CCN1C(=O)N2Cc3cc(OC)cc(OC)c3[C@@H](C)C=C2C12CCN(Cc1cccnc1C)CC2 [ER-819832-01]	57 nM
CCN1C(=O)N2Cc3cc(OC)cc(OC)c3[C@@H](C)C=C2C12CCN(Cc1cccnc1OC)CC2 [ER-819833-01]	47 nM
CCN1C(=O)N2Cc3cc(OC)cc(OC)c3[C@@H](C)C=C2C12CCN(Cc1cnc3ccccc3c1)CC2 [ER-819837-01]	56 nM
CCN1C(=O)N2Cc3cc(OC)cc(OC)c3[C@@H](C)C=C2C12CCN(Cc1sncc1C)CC2 [ER-819842-01]	81 nM
CCN1C(=O)N2Cc3cc(OC)cc(OC)c3[C@@H](C)C=C2C12CCN(Cc1ccc3cc[nH]c3c1)CC2 [ER-819844-01]	67 nM
CCN1C(=O)N2Cc3cc(OC)cc(OC)c3[C@@H](C)C=C2C12CCN(Cc1ccc3nn(C)nc3c1)CC2 [ER-819847-01]	35 nM
CCN1C(=O)N2Cc3cc(OC)cc(OC)c3[C@@H](C)C=C2C12CCN(Cc1cccn1-c1ccccc1C(F)(F)F)CC2 [ER-819849-01]	220 nM
CCN1C(=O)N2Cc3cc(O)cc(O)c3[C@@H](C)C=C2C12CCN(Cc1cc(C)cc(C)c1)CC2 [ER-819888-00]	300 nM
CCN1C(=O)N2Cc3cc(OC)cc(OC)c3[C@@H](C)C=C2C12CCN(Cc1cccn1C)CC2 [ER-819924]	50 nM
CCN1C(=O)N2Cc3cc(OC)cc(OC)c3[C@H](C)C=C2C12CCN(Cc1cccn1C)CC2 [ER-819925]	320 nM
CCN1C(=O)N2Cc3cc(OC)cc(OC)c3[C@@H](C)C=C2C12CCN(Cc1nc3ccccc3n1C)CC2 [ER-819926]	40 nM
CCN1C(=O)N2Cc3cc(OC)cc(OC)c3[C@H](C)C=C2C12CCN(Cc1nc3ccccc3n1C)CC2 [ER-819927]	210 nM
CCN1C(=O)N2Cc3cc(OC)cc(OC)c3[C@@H](C)C=C2C12CCN(Cc1cc(C)c(F)c(C)c1)CC2 [ER-819931]	70 nM
CCN1C(=O)N2Cc3cc(OC)cc(OC)c3[C@@H](C)C=C2C12CCN(Cc1ccc(F)c(OC(F)(F)F)c1)CC2 [ER-819933]	1150 nM
CCN1C(=O)N2Cc3cc(OC)cc(OC)c3[C@@H](C)C=C2C12CCN(Cc1c(F)ccc(C)c1F)CC2 [ER-819934]	100 nM
CCN1C(=O)N2Cc3cc(OC)cc(OC)c3[C@@H](C)C=C2C12CCN(Cc1cc(C)ccc1F)CC2 [ER-819935]	130 nM
CCN1C(=O)N2Cc3cc(OC)cc(OC)c3[C@@H](C)C=C2C12CCN(Cc1ccc(F)c(OC)c1)CC2 [ER-819936]	120 nM
CCN1C(=O)N2Cc3cc(OC)cc(OC)c3[C@H](C)C=C2C12CCN(Cc1cc(C)c(F)c(C)c1)CC2 [ER-819943]	> 10000 nM
CCN1C(=O)N2Cc3cc(OC)cc(OC)c3[C@H](C)C=C2C12CCN(Cc1ccc(F)c(OC(F)(F)F)c1)CC2 [ER-819945]	> 10000 nM
CCN1C(=O)N2Cc3cc(OC)cc(OC)c3[C@H](C)C=C2C12CCN(Cc1c(F)ccc(C)c1F)CC2 [ER-819946]	2970 nM
